# Data published in patent publication US20240000811A1, “INOSITOL HEXAKISPHOSPHATE ANALOGUES FOR TREATMENT OF CALCIFICATION ASSOCIATED KIDNEY DISEASES” (INOSITEC AG, priority 2020, published 2024).
# Assays:
# [1] = In-solution screening: CaP precipitation and aggregation in artificial renal tubular fluid (RTF); details: 9 mM phosphate, 8 mM calcium, 4 h, RT
# Method: An artificial renal tubular fluid (RTF) with a final composition of 0.05 mM oxalate, 0.005 mM sulphate, 408 mM sodium, 424 mM chloride, 0.26 mM potassium, 4 mM magnesium and 0.2 mM citrate in double distilled water was prepared according to a literature report (Fasano, J. M. et al., Kidney Int. 59, 169-178. DOI: 10.1046/j.1523-1755.2001.00477.x, 2001). The solution was filtered with a 0.45-μm syringe filter. Twenty mM Bis-Tris buffer was added to the reported protocol to ensure pH stability throughout experiments and pH was set to 7.2. The artificial RTF was stored at room temperature for up to four months. Stock solutions of 0.25 M phosphate and 1 M calcium were prepared in double distilled water and were stored separately at −20° C.
# Twenty-x final concentration phosphate, 20× final concentration calcium and 10× final concentration compound dilutions were prepared in RTF. Assay mixture consisting of 80% RTF, 10% compound dilution, 5% phosphate dilution and 5% calcium dilution was prepared in Eppendorf tubes as follows. RTF (320 μL) was mixed with 20 μL phosphate dilution (final concentration of 9 mM), 40 μL compound dilution and 20 μL calcium dilution (final concentration of 8 mM). The assay mixture was vortexed after adding each component and 380 μL of the mixture were immediately added to 8-well glass bottom slides and incubated for 4 hat RT. CaP precipitation was assessed using a Leica DM 6000B microscope (Leica Microsystems, Wetzlar, Germany) in brightfield mode. For quantification 3 wells/condition with 3-4 images/well were imaged with a 40× objective. The total area covered with CaP deposits in percentage of the field of view and the mean size of CaP aggregates were determined.
# In a first step, the influence of selected IP6 analogues (FIG. 3) on CaP precipitation and growth was assessed in vitro using artificial renal tubular fluid (RTF) (Table 1). In a previous study, the inventors investigated CaP protein particle formation in serum. However, an important difference to cardiovascular calcification lies in the extremely low protein content of the renal tubular fluid vs. the high abundance of proteins in blood, which can stabilize amorphous particles. Two cut-offs were chosen for assessing efficacy. First, complete inhibition was defined as a >90% reduction of detected CaP precipitates compared to the control sample without compound.
# [2] = test system: RPTEC/TERT 1 human proximal tubule cells; assay: Imaging assay: CaP adhesion/deposition and cellular changes on RPTEC monolayers treated with 5/7 mM Ca/P; type: cell-based
# Method: RPTEC/TERT 1 human proximal tubule cells (RPTEC) were cultured in T75 tissue culture flasks using ProxUp basal medium mixed with ProxUp supplements at 37° C. and 5% CO2 according to manufacturer's recommendations. Cells were used up to passage 30 and regularly tested for Mycoplasma infections. For experiments, RPTEC were cultured in 24-well plates at a seeding density of 150′000 cells/cm^2. Cell viability assessment and cell counting before seeding was performed using an automated cell counter (BioRad TC 20, Hercules, CA, USA).
# For the comparison of selected IP6 analogues, ProxUp basal medium was prepared with the selected inhibitor and added to each well. Then, CaP precipitation was induced by direct addition of first, phosphate and second, calcium. Final concentrations of 7 mM phosphate and 5 mM calcium were used. Cells were incubated for 24 h at 37° C. and 5% CO2. Spiked medium was removed, and cells were washed twice with PBS before staining.
# (§1) For staining, ProxUp basal medium was mixed with calcein (500 nM final concentration), EthD (6 μM final concentration), CellMask stain ([…]) and Hoechst 33342. Staining mixture was added to RPTEC and cells were incubated for 30 min in the dark at 37° C. and 5% CO2. Staining solution was removed, cells were washed with PBS once and ProxUp basal medium was added. Cells were immediately imaged after staining. Images were obtained by epifluorescence microscopy at 37° C., using a Leica CTR6000 microscope. For quantification 3 wells/condition were prepared and 3 images/well were taken. For preliminary adhesion experiments images were taken with a 10× objective, for the imaging assay 20× objective images were taken.
# Multichannel images were saved as individual channel images in 8-bit tiff format. For analysis Hoechst channel images were thresholded using the triangle threshold. Touching nuclei of the binary image were further segmented using the watershed algorithm with the distance transform of the binary image as input and local maxima thereof as seeds.
# For EthD channel images, high level of background noise was observed, potentially as a result of fluorescence of the CellMask stain bleeding through. […] A fixed minimum threshold was set at 60. Watershed segmentation similar to the Hoechst channel was performed to segment touching objects. For the calcein channel images adaptive thresholding by triangle thresholding achieved good detection of CaP deposits, which was validated by visual comparison to brightfield channel images. For compound experiments, an additional upper threshold was set to the minimum threshold of the pos.ctrl images for the respective experiment. Thereby an overly insensitive threshold in images with a high amount of CaP deposition was circumvented. The sum of foreground pixels of the binary image was used to calculate the total area of CaP deposits. The skimage label algorithm was used to label touching foreground regions.
# To segment images to single cells the CellMask channel image was first binarized by adaptive thresholding, using a blocksize of 35, followed by median filtering. Binary erosion was performed to shrink the outlines. A version of watershed algorithm was used to segment the whole image into single cells. To this end, the distance transform of the binary erosion image was used as input image and seeds were set to the local maxima of the Hoechst channel image. While this protocol allowed for an approximation of single cell morphology, further improvements of both analytical and experimental staining procedure would be necessary to achieve more accurate results.
# Additionally, texture features of calcein and CellMask channel images were extracted. Grey level co-occurrence matrices were calculated using one set offset of 5 pixel and an angle of 90°. Here, the use of larger offsets could improve the detection of changes in large-scale features, e.g. CaP clustering sites. […]
# [3] = test system: RPTEC/TERT 1 human proximal tubule cells; assay: CaP-induced CaOx crystallization on RPTEC monolayers; type: cell-based; details: 1.2 mM oxalate, 4 h
# Method: For the assessment of CaP-induced CaOx crystallization, after 24 h of incubation, Ca/P spiked medium was removed, and cells were washed twice with PBS. Subsequently, medium containing 1.2 mM oxalate and compound was added to each well. After 4 h of incubation at 37° C. and 5% CO2 treatment was removed, and cells washed once with PBS before staining.
# as §1
# [4] = previous study (Kletzmayr et al. 2020); cited from earlier work
# [5] = reported, Schantl et al. 2020; cited from earlier work
# [6] = 7 mM phosphate, 5 mM calcium, 24 h
smiles,measurement,setting,value
COCCOCCO[C@@H]1C(OP(=O)(O)O)[C@H](OCCOCCOC)[C@@H](OP(=O)(O)O)C(OP(=O)(O)O)[C@H]1OP(=O)(O)O (stereo partly shown) [(OEG2)2-IP4],effect on CaP precipitation / crystallization (in words),[1],did not further increase the inhibitory activity
same,concentration achieving complete inhibition of CaP adhesion,[2]; [6],50 µM
same,concentration down to which CaP adhesion was drastically reduced,[2]; [6],12.5 µM
same,single cell area compared to the positive ctrl,"[2]; 6-50 μM compound, 5/7 mM Ca/P",dose-dependently reduced
same,single cell solidity compared to the positive ctrl,"[2]; 6-50 μM compound, 5/7 mM Ca/P",increased
same,total cell count/field of view compared to the positive ctrl,"[2]; 6-50 μM compound, 5/7 mM Ca/P",increased
same,number of dead cells compared to the positive ctrl,"[2]; 6-50 μM compound, 5/7 mM Ca/P, EthD staining",dose-dependently reduced
same,image feature profile vs positive ctrl (+5/7 mM Ca/P) and negative ctrl,"[2]; 6-50 μM compound, 24 h",dose-dependent reversal
same,total CaP area compared to the positive ctrl,"[2]; 6 and 13 μM compound, 5/7 mM Ca/P, calcein staining",reduction
same,calcium oxalate dihydrate (COD) in CaP-induced CaOx crystallization,[3]; 100 μM compound,almost entirely abolished
same,CaOx crystal form in CaP-induced CaOx crystallization,"[3]; after 24 h Ca/P, dose-dependent","revert CaOx crystallization from calcium oxalate monohydrate (COM), the predominant most stable form, to calcium oxalate dihydrate (COD)"
same,efficacy on CaOx crystallization in solution,[4],limited efficacy
same,pharmacokinetic profile,[5],favorable
